Data published in US20100267561A1, “HERBICIDAL PYRIDAZINONE DERIVATIVES” (priority 2007, published 2010).
Read-outs that look alike come from different tables or passages of the source.

Columns and labels:
Format in all cases: in vivo
[1] = test system: barnyardgrass (Echinochloa crus-galli); assay: Test A pre-/postemergence plant response; settings: Echinochloa crus-galli, 240 h, read-out: Plant response rating, Barnyardgrass; for pest or weed control at 125 g/ha: 125 g ai/ha; for pest or weed control at 500 g/ha: 500 g ai/ha
How it was run: (§1)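 Seeds sown in loam–sand blend; test chemicals in non-phytotoxic solvent with surfactant applied preemergence as directed soil spray and, concurrently, postemergence to plants 2–10 cm tall at one- to two-leaf stage. Greenhouse ~10 days, then visual injury rating vs untreated controls on 0–100 scale (0 = no effect, 100 = complete control).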

corn (Zea mays) = assay: Test A pre-/postemergence plant response; settings: Zea mays, 240 h; for Corn plant response rating (crop injury, 0 = no effect, 100 = complete kill) at 125 g/ha: 125 g ai/ha; for Corn plant response rating (crop injury, 0 = no effect, 100 = complete kill) at 500 g/ha: 500 g ai/ha
How it was run: as §1

[2] = test system: giant foxtail (Setaria faberi); assay: Test A pre-/postemergence plant response; settings: Setaria faberi, 240 h, read-out: Plant response rating, Foxtail, Giant; for pest or weed control at 125 g/ha: 125 g ai/ha; for pest or weed control at 500 g/ha: 500 g ai/ha
How it was run: as §1

[3] = test system: large crabgrass (Digitaria sanguinalis); assay: Test A pre-/postemergence plant response; settings: Digitaria sanguinalis, 240 h, read-out: Plant response rating, Crabgrass, Large; for pest or weed control at 125 g/ha: 125 g ai/ha; for pest or weed control at 500 g/ha: 500 g ai/ha
How it was run: as §1

[4] = test system: morningglory (Ipomoea coccinea); assay: Test A pre-/postemergence plant response
How it was run: as §1

[5] = test system: pigweed (Amaranthus retroflexus); assay: Test A pre-/postemergence plant response; settings: Amaranthus retroflexus, 240 h, read-out: Plant response rating, Pigweed; for pest or weed control at 125 g/ha: 125 g ai/ha; for pest or weed control at 500 g/ha: 500 g ai/ha
How it was run: as §1

[6] = test system: velvetleaf (Abutilon theophrasti); assay: Test A pre-/postemergence plant response
How it was run: as §1

[7] = test system: wheat (Triticum aestivum); assay: Test A pre-/postemergence plant response; settings: Triticum aestivum, 240 h, read-out: Plant response rating, Wheat; for plant injury at 125 g/ha: 125 g ai/ha; for plant injury at 500 g/ha: 500 g ai/ha
How it was run: as §1

[8] = test system: barnyardgrass (Echinochloa crus-galli); assay: Test B flooded paddy test plant response; settings: Echinochloa crus-galli, read-out: Plant response rating, Barnyardgrass
How it was run: (§2)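 Step one: raise plants to 2 leaves. Step two: flood pots 3 cm over the soil and apply compound into the water, keeping this depth. Step three: after 13–15 greenhouse days, score visually versus controls, 0–100, where 100 means complete control.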

[9] = test system: ducksalad (Heteranthera limosa); assay: Test B flooded paddy test plant response; settings: Heteranthera limosa, read-out: Plant response rating, Ducksalad
How it was run: as §2

rice (Oryza sativa) = assay: Test B flooded paddy test plant response; settings: Oryza sativa, read-out: Plant response rating, Rice
How it was run: as §2

[10] = test system: umbrella sedge (Cyperus difformis); assay: Test B flooded paddy test plant response; settings: Cyperus difformis, read-out: Plant response rating, Sedge, Umbrella
How it was run: as §2

[11] = post-emergence, Postemergence, 0 to 100 scale, 0 no effect, 100 complete control
[12] = pre-emergence, Preemergence, 0 to 100 scale (0 no effect, 100 complete control)
[13] = Postemergence, 125 g ai/ha, 0 to 100 scale, 0 no effect, 100 complete control
[14] = Postemergence, 500 g ai/ha, 0 to 100 scale, 0 no effect, 100 complete control
[15] = Preemergence, 125 g ai/ha, 0 to 100 scale (0 no effect, 100 complete control)
[16] = Preemergence, 500 g ai/ha, 0 to 100 scale (0 no effect, 100 complete control)
[17] = Flood (flooded paddy test), 62 g ai/ha, scale 0 to 100, 0 no effect, 100 complete control
[18] = Flood (flooded paddy test), 125 g ai/ha, scale 0 to 100, 0 no effect, 100 complete control
[19] = Flood (flooded paddy test), 250 g ai/ha, scale 0 to 100, 0 no effect, 100 complete control
[20] = Flood, 31 g ai/ha, scale 0 to 100

Cc1cn(-c2ccc(Cl)cc2)nc1-c1c(O)cnn(C)c1=O [Compound 30, 4-[1-(4-chlorophenyl)-4-methyl-1H-pyrazol-3-yl]-5-hydroxy-2-methyl-3(2H)-pyridazinone]
60%: pest or weed control at 125 g/ha [3, 11]
50%: pest or weed control at 125 g/ha [1, 11] | plant injury at 500 g/ha [7, 11]
0%: Corn plant response rating (crop injury, 0 = no effect, 100 = complete kill) at 125 g/ha (corn (Zea mays); [11]) | Corn plant response rating (crop injury, 0 = no effect, 100 = complete kill) at 125 g/ha (corn (Zea mays); [12]) | pest or weed control at 125 g/ha [5, 11] | pest or weed control at 500 g/ha [5, 11] | pest or weed control at 125 g/ha [5, 12] | pest or weed control at 500 g/ha [5, 12] | pest or weed control at 62 g/ha [8, 17] | pest or weed control at 125 g/ha [8, 18] | pest or weed control at 250 g/ha [8, 19] | pest or weed control at 31 g/ha [8, 20] | pest or weed control at 62 g/ha [9, 17] | pest or weed control at 125 g/ha [9, 18] | pest or weed control at 250 g/ha [9, 19] | pest or weed control at 31 g/ha [9, 20] | plant injury at 62 g/ha (rice (Oryza sativa); [17]) | plant injury at 125 g/ha (rice (Oryza sativa); [18]) | plant injury at 250 g/ha (rice (Oryza sativa); [19]) | plant injury at 31 g/ha (rice (Oryza sativa); [20]) | pest or weed control at 62 g/ha [10, 17] | pest or weed control at 125 g/ha [10, 18] | pest or weed control at 250 g/ha [10, 19] | pest or weed control at 31 g/ha [10, 20]
70%: Corn plant response rating (crop injury, 0 = no effect, 100 = complete kill) at 500 g/ha (corn (Zea mays); [11]) | Corn plant response rating (crop injury, 0 = no effect, 100 = complete kill) at 500 g/ha (corn (Zea mays); [12])
100%: pest or weed control at 125 g/ha [1, 12] | pest or weed control at 500 g/ha [1, 12] | pest or weed control at 125 g/ha [2, 12] | pest or weed control at 500 g/ha [2, 12] | pest or weed control at 125 g/ha [3, 12] | pest or weed control at 500 g/ha [3, 12]
90%: pest or weed control at 500 g/ha [1, 11] | pest or weed control at 500 g/ha [2, 11] | pest or weed control at 500 g/ha [3, 11] | plant injury at 500 g/ha [7, 12]
40%: plant injury at 125 g/ha [7, 11] | plant injury at 125 g/ha [7, 12]
80%: pest or weed control at 125 g/ha [2, 11]
0: Plant response rating, Morningglory [4, 13] | Plant response rating, Morningglory [4, 14] | Plant response rating, Morningglory [4, 15] | Plant response rating, Morningglory [4, 16] | Plant response rating, Velvetleaf [6, 13] | Plant response rating, Velvetleaf [6, 14] | Plant response rating, Velvetleaf [6, 15] | Plant response rating, Velvetleaf [6, 16]
